# Laboratory results as given in ChEMBL document CHEMBL5608247, “Development of a First-in-Class DNMT1/HDAC Inhibitor with Improved Therapeutic Potential and Potentiated Antitumor Immunity” (J Med Chem, 2024).
# Calls of active or inactive are those of the source. The calls are words filed in the database; no cut-off is given here.
# Assays:
# MV4-11 [1] = assay: Antiproliferative activity against human MV4-11 cells incubated for 96 hrs by CCK8 assay; type: functional, cell-based; settings: MV4-11, 96 h
# MV4-11 [2] = assay: Antitumor activity against human MV4-11 cells xenografted in BALB/c nude mouse at 45 mg/kg, ip qd treated for 19 days relative to control; type: functional; settings: MV4-11, 456 h, time 19 day, read-out: TGI
# [3] = Toxicity in BALB/c nude mouse xenografted with human MV4-11 cells assessed as body weight loss at 45 mg/kg, ip qd treated for 19 days; type: organism-based; settings: in vivo, 456 h, time 19 day
# [4] = Toxicity in BALB/c nude mouse xenografted with human MV4-11 cells assessed as animal fatality at 45 mg/kg, ip qd treated for 19 days; type: organism-based; settings: in vivo, 456 h, time 19 day
# [5] = target: T1, DNA (cytosine-5)-methyltransferase 1 (Homo sapiens, UniProt P26358); assay: Induction of thermal stabilization of N-terminal 6xHis-FLAG-tagged […] human DNMT1 (698 to 1616 residues) extracted from Sf9 cells assessed as change in melting temperature at 10 uM by SYPRO Orange dye based PTS assay (reference value: 0.0 degreeC); type: cell-based
# [6] = target: T1, DNA (cytosine-5)-methyltransferase 1; assay: Inhibition of DNMT1 in human MV4-11 cells at 1 uM incubated for 6 hrs in presence of MG132 by Western blot analysis; type: cell-based
# [7] = target: T1, DNA (cytosine-5)-methyltransferase 1; assay: Inhibition of DNMT1 in human MV4-11 cells at 1 uM incubated for 6 hrs in presence of CQ by Western blot analysis; type: cell-based
# [8] = target: T1, DNA (cytosine-5)-methyltransferase 1; assay: Inhibition of DNMT1 in human MV4-11 cells at 1 uM incubated for 6 hrs in presence of Z-VAD-FMK by Western blot analysis; type: cell-based
# [9] = target: T1, DNA (cytosine-5)-methyltransferase 1; assay: Inhibition of DNMT1 in human HL-60 cells at 1 uM incubated for 6 hrs in presence of MG132 by Western blot analysis; type: cell-based
# [10] = target: T1, DNA (cytosine-5)-methyltransferase 1; assay: Inhibition of DNMT1 in human HL-60 cells at 1 uM incubated for 6 hrs in presence of CQ by Western blot analysis; type: cell-based
# [11] = target: T1, DNA (cytosine-5)-methyltransferase 1; assay: Inhibition of DNMT1 in human HL-60 cells at 1 uM incubated for 6 hrs in presence of Z-VAD-FMK by Western blot analysis; type: cell-based
# [12] = target: T1, DNA (cytosine-5)-methyltransferase 1; assay: Inhibition of DNMT1 in human MV4-11 cells assessed as ABT1 promoter methylation at 300 nM incubated for 3 days by Bisulfite Sequencing PCR analysis (reference value: 99.3 %); type: cell-based; design: scale not given: the % may be the effect or the level left; settings: time 3.0 day
# MV4-11 [13] = assay: Upregulation of p57 expression in human MV4-11 cells at 100 nM incubated for 2 days in presence of SAHA by RNA-Seq analysis; type: functional, cell-based; settings: time 2.0 day
# MV4-11 [14] = assay: Upregulation of BLK expression in human MV4-11 cells at 100 nM incubated for 2 days in presence of SAHA by RNA-Seq analysis; type: functional, cell-based; settings: time 2.0 day
# MV4-11 [15] = assay: Upregulation of S100A16 expression in human MV4-11 cells at 100 nM incubated for 2 days in presence of SAHA by RNA-Seq analysis; type: functional, cell-based; settings: time 2.0 day
# [16] = target: T1, DNA (cytosine-5)-methyltransferase 1; assay: Synergistic inhibition of DNMT1 in human MV4-11 cells at 100 nM incubated for 2 days in presence of SAHA by RNA-Seq analysis; type: cell-based; settings: time 2.0 day
# [17] = target: Histone deacetylase (Homo sapiens) (UniProt Q13547+O15379+Q9UBN7+Q92769+Q9UQL6+Q8WUI4+Q9BY41+Q96DB2+P56524+Q9UKV0+Q969S8); assay: Inhibition of HDAC in human MV4-11 cells at 100 nM incubated for 2 days in presence of SAHA by RNA-Seq analysis; type: cell-based; settings: time 2.0 day
# MV4-11 [18] = assay: Downregulation of MYC expression in human MV4-11 cells at 100 nM incubated for 2 days in presence of SAHA by RNA-Seq analysis; type: functional, cell-based; settings: time 2.0 day
# MV4-11 [19] = assay: Downregulation of GPR183 expression in human MV4-11 cells at 100 nM incubated for 2 days in presence of SAHA by RNA-Seq analysis; type: functional, cell-based; settings: time 2.0 day
# MV4-11 [20] = assay: Downregulation of FOXH1 expression in human MV4-11 cells at 100 nM incubated for 2 days in presence of SAHA by RNA-Seq analysis; type: functional, cell-based; settings: time 2.0 day
# MV4-11 [21] = assay: Downregulation of GLIS2 expression in human MV4-11 cells at 100 nM incubated for 2 days in presence of SAHA by RNA-Seq analysis; type: functional, cell-based; settings: time 2.0 day
# MV4-11 [22] = assay: Inhibition of cell viability in human MV4-11 cells incubated for 4 days in presence of SAHA by CCK8 assay; type: functional, cell-based; settings: MV4-11, 96 h
# HL-60 = assay: Inhibition of cell viability in human HL-60 cells incubated for 4 days in presence of SAHA by CCK8 assay; type: functional, cell-based; settings: HL-60, 96 h
# Kasumi 1 = assay: Inhibition of cell viability in human Kasumi 1 cells incubated for 4 days in presence of SAHA by CCK8 assay; type: functional, cell-based; settings: Kasumi 1, 96 h
# [23] = Inhibition of cell viability in human HSPC cells incubated for 4 days in presence of SAHA by CCK8 assay; type: toxicity, cell-based
# MV4-11 [24] = assay: Antitumor activity against human MV4-11 cells xenografted in BALB/c nude mouse at 30 mg/kg, ip qd for 27 days in presence of SAHA relative to control; type: functional; settings: MV4-11, 648 h, time 27 day, read-out: TGI
# [25] = Toxicity in BALB/c nude mouse xenografted with human MV4-11 cells assessed as body weight loss at 30 mg/kg, ip qd for 27 days in presence of SAHA; type: organism-based; settings: in vivo, 648 h, time 27 day
# MC-38 [26] = assay: Upregulation of Oas2 mRNA level in mouse MC38 cells at 1 to 3 uM incubated for 3 days in presence of SAHA by qRT-PCR analysis; type: functional, cell-based; settings: dose 1-3 µM, time 3.0 day
# MC-38 [27] = assay: Upregulation of Isg15 mRNA level in mouse MC38 cells at 1 to 3 uM incubated for 3 days in presence of SAHA by qRT-PCR analysis; type: functional, cell-based; settings: dose 1-3 µM, time 3.0 day
# MC-38 [28] = assay: Upregulation of IAPEz mRNA level in mouse MC38 cells at 1 to 3 uM incubated for 3 days in presence of SAHA by qRT-PCR analysis; type: functional, cell-based; settings: dose 1-3 µM, time 3.0 day
# MC-38 [29] = assay: Antitumor activity against mouse MC38 cells allografted in immunodeficient BALB/c nude mouse at 30 mg/kg, ip qd for 15 days in presence of SAHA relative to control; type: functional; settings: MC-38, 360 h, time 15 day, read-out: TGI
# [30] = Toxicity in immunodeficient BALB/c nude mouse allografted with mouse MC38 cells assessed as drug tolerance at 30 mg/kg, ip qd for 15 days in presence of SAHA; type: organism-based, MC-38; settings: in vivo, 360 h, time 15 day
# [31] = Toxicity in immunodeficient BALB/c nude mouse allografted with mouse MC38 cells assessed as body weight loss at 30 mg/kg, ip qd for 15 days in presence of SAHA; type: organism-based, MC-38; settings: in vivo, 360 h, time 15 day
# MC-38 [32] = assay: Immunomodulatory activity in mouse MC38 cells allografted in mouse assessed as accumulation of T cells at 30 mg/kg, ip qd in presence of SAHA; type: functional, organism-based
# MC-38 [33] = assay: Immunomodulatory activity in mouse MC38 cells allografted in mouse assessed as accumulation of NKT cells at 30 mg/kg, ip qd in presence of SAHA; type: functional, organism-based
# MC-38 [34] = assay: Immunomodulatory activity in mouse MC38 cells allografted in mouse assessed as increase in IFN-gamma-positive cells at 30 mg/kg, ip qd in presence of SAHA; type: functional, organism-based
# MC-38 [35] = assay: Immunomodulatory activity in mouse MC38 cells allografted in mouse assessed as polarization of macrophages towards tumor -suppressing M1 phenotype at 30 mg/kg, ip qd in presence of SAHA; type: functional, organism-based
# MC-38 [36] = assay: Immunomodulatory activity in mouse MC38 cells allografted in mouse assessed as inhibition of pro-tumor M2 polarization at 30 mg/kg, ip qd in presence of SAHA; type: functional, organism-based
# T1 sequence (P26358 whole entry, the tested form may be a part): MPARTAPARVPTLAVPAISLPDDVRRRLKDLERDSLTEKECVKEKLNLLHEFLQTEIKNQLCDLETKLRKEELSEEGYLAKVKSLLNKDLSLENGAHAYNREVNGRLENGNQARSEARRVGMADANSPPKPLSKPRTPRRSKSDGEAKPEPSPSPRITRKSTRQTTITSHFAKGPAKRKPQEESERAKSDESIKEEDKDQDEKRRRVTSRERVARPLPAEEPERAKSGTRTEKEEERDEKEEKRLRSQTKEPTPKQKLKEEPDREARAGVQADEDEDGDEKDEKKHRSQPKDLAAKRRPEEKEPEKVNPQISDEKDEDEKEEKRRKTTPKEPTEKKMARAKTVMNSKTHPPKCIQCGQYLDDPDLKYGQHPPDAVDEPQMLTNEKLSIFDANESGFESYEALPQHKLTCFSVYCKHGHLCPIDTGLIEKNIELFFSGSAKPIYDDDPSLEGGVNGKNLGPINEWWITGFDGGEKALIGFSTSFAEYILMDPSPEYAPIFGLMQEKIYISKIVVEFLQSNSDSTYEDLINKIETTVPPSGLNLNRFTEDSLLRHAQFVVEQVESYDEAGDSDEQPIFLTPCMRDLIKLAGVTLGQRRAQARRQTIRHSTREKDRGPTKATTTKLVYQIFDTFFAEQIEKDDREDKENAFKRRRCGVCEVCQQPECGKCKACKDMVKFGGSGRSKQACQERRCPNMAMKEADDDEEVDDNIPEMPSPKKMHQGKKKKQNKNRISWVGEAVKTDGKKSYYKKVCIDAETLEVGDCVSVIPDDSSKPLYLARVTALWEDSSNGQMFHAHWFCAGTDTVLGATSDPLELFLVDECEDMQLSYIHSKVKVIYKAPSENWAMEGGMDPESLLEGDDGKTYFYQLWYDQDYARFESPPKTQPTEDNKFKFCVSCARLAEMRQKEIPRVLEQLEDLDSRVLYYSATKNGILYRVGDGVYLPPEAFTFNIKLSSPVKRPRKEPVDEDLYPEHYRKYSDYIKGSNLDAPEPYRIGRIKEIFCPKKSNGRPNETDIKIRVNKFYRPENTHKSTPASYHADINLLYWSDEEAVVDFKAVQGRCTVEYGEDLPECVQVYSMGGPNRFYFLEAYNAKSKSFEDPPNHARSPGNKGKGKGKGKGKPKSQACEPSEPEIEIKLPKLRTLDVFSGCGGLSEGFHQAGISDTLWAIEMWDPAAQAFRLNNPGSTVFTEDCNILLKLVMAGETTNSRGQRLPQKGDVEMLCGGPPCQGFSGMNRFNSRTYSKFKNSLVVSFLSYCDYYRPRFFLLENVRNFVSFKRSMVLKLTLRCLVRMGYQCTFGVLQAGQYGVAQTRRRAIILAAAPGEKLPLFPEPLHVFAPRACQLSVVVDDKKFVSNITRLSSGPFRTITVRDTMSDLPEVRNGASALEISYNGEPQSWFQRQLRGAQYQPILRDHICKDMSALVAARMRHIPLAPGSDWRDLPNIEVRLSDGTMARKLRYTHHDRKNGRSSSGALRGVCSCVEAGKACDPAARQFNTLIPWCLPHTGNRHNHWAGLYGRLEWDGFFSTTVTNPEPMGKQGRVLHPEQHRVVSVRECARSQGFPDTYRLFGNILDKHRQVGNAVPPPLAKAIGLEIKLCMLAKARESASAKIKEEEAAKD
smiles,measurement,setting,value
CCc1c(C#N)c(SC(C(N)=O)c2ccccc2)nc(N2CCC(N)CC2)c1C#N (stereo not drawn),IC50,MV4-11 [1],> 5 µM
same,inhibition in vivo at 45 mg/kg,MV4-11 [2],93%
same,Activity,[3],Toxic
same,Activity,[4],Toxic
same,ΔTm,[5],8 °C
same,inhibition,[6],inactive
same,inhibition,[7],Active
same,inhibition,[8],Active
same,inhibition,[9],inactive
same,inhibition,[10],Active
same,inhibition,[11],Active
same,Activity,[12],6.43%
same,Activity,MV4-11 [13],Active
same,Activity,MV4-11 [14],Active
same,Activity,MV4-11 [15],Active
same,inhibition,[16],Active
same,inhibition,[17],Active
same,Activity,MV4-11 [18],Active
same,Activity,MV4-11 [19],Active
same,Activity,MV4-11 [20],Active
same,Activity,MV4-11 [21],Active
same,IC50,MV4-11 [22],0.4 µM
same,IC50,HL-60,0.32 µM
same,IC50,Kasumi 1,0.38 µM
same,IC50 at 4 days,[23],0.8 µM
same,inhibition in vivo at 30 mg/kg,MV4-11 [24],89%
same,Activity,[25],Toxic
same,Activity,MC-38 [26],Active
same,Activity,MC-38 [27],Active
same,Activity,MC-38 [28],Active
same,inhibition in vivo at 30 mg/kg,MC-38 [29],24%
same,Activity,[30],Non-Toxic
same,Activity,[31],Non-Toxic
same,Activity,MC-38 [32],Active
same,Activity,MC-38 [33],Active
same,Activity,MC-38 [34],Active
same,Activity,MC-38 [35],Active
same,inhibition,MC-38 [36],Active
